Data set [1] addresses T1, human PKCθ full length enzyme (Homo sapiens, UniProt Q04759).
T1 construct: human PKCθ full length enzyme (Panvera Catalog No. P2996); purchased Panvera P2996
As to the kind of experiment: PKCθ IMAP Assay. The class given is biochemical. The settings on record: average value when one or more samples were tested; ATP 6 uM, PKCθ 1 nM. In a few lines: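 IMAP fluorescence polarization after 20 min with binding beads measured phosphorylation of 100 nM 5FAM-peptide. Reactions held 1 nM full-length human PKCθ, 6 uM ATP, 5% DMSO and DTT-containing buffer, 25 min at room temperature. Compounds tested as 2:1 serial dilutions; controls lacked ATP or enzyme.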

T1 sequence (Q04759 whole entry): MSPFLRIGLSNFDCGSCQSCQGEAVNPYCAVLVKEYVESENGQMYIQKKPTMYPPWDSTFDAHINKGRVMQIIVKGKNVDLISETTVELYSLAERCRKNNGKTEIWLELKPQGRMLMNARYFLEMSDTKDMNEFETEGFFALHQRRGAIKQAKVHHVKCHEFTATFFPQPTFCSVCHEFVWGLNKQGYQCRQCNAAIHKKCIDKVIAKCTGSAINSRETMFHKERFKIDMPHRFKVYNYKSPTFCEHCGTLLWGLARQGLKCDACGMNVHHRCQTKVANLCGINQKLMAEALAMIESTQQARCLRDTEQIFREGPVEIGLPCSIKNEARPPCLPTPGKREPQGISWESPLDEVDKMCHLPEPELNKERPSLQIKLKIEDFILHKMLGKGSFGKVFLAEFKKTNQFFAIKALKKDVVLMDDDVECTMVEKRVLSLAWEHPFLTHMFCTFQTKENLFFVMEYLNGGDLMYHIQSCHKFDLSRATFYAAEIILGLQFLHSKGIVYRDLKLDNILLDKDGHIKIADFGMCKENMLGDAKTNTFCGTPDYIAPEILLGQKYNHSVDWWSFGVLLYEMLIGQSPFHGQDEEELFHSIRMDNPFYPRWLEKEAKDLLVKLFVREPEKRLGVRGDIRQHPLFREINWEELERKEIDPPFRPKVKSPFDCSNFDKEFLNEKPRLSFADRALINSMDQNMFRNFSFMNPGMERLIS

On to `Cc1c(Nc2c(C#N)cnc3sc(C#Cc4ccc(CN(C)C)s4)cc23)ccc2[nH]ccc12` [Compound 448, 2-({5-[(dimethylamino)methyl]-2-thienyl}ethynyl)-4-[(4-methyl-1H-indol-5-yl)amino]thieno[2,3-b]pyridine-5-carbonitrile], for which the melting point (commonly the temperature, or range, at which the solid turns liquid) fell in the range of 185 to 187 °C. Half-maximal inhibition in data set [1] (IC50) was put at 83 nM.

In the case of `CN1CCN(CCCCc2cc3c(Nc4ccc5[nH]ccc5c4)c(C#N)cnc3s2)CC1` [Compound 274, 4-(1H-indol-5-ylamino)-2-[4-(4-methylpiperazin-1-yl)butyl]thieno[2,3-b]pyridine-5-carbonitrile], the melting point was 120 °C (dec.). Further, it took 983 nM to reach half-maximal inhibition in data set [1] (IC50).

The compound `Cc1c(Nc2c(C#N)cnc3sc(C#Cc4coc(CN5CCN(C)CC5)c4)cc23)ccc2[nH]ccc12` [Compound 447, 4-[(4-methyl-1H-indol-5-yl)amino]-2-({5-[(4-methylpiperazin-1-yl)methyl]-3-furyl}ethynyl)thieno[2,3-b]pyridine-5-carbonitrile] returned a melting point of 216 to 218 °C. Moreover, the IC50 (usually the concentration that gives 50% inhibition) in data set [1] stood at 171 nM.

The compound `Cc1c(Nc2c(C#N)cnc3sc(C#Cc4ccc(CN(C)C)o4)cc23)ccc2[nH]ccc12` [Compound 449, 2-({5-[(dimethylamino)methyl]-2-furyl}ethynyl)-4-[(4-methyl-1H-indol-5-yl)amino]thieno[2,3-b]pyridine-5-carbonitrile] came in with a melting point of 218 to 220 °C. The same compound gave a half-maximal inhibitory concentration (IC50) in data set [1] of 25 nM.

For the compound `Cc1c(Nc2c(C#N)cnc3sc(C#Cc4cncc(CN(C)C)c4)cc23)ccc2[nH]ccc12` [Compound 452, 2-({5-[(dimethylamino)methyl]pyridin-3-yl}ethynyl)-4-[(4-methyl-1H-indol-5-yl)amino]thieno[2,3-b]pyridine-5-carbonitrile], the melting point is 130 °C (dec.). The IC50 in data set [1] came to 18 nM.

The compound `N#Cc1cnc2sc(CN3CCCC3)cc2c1Nc1ccc2[nH]ccc2c1` [Compound 267, 4-(1H-indol-5-ylamino)-2-(pyrrolidin-1-ylmethyl)thieno[2,3-b]pyridine-5-carbonitrile] registered a melting point of 212 to 215 °C. In addition, half-maximal inhibition in data set [1] (IC50) was put at 3210 nM.

As to `Cc1c(Nc2c(C#N)cnc3scc(CO)c23)ccc2[nH]ccc12` [Compound 496, 3-(Hydroxymethyl)-4-[(4-methyl-1H-indol-5-yl)amino]thieno[2,3-b]pyridine-5-carbonitrile], the melting point amounted to 230 °C. Also, the concentration for half-maximal inhibition (IC50) in data set [1] was 63 nM.

`Cc1c(Nc2c(C#N)cnc3sc(C4=CCN(C)CC4)cc23)ccc2[nH]ccc12` [Compound 477, 4-[(4-Methyl-1H-indol-5-yl)amino]-2-(1-methyl-1,2,3,6-tetrahydropyridin-4-yl)thieno[2,3-b]pyridine-5-carbonitrile] displayed a melting point of 230 °C. Also, it took 41 nM to reach half-maximal inhibition in data set [1] (IC50).

Compound `CN(C)Cc1cccc(-c2cc3c(Nc4ccc5[nH]ccc5c4)c(C#N)cnc3s2)n1` [Compound 443, 2-{6-[(dimethylamino)methyl]pyridin-2-yl}-4-(1H-indol-5-ylamino)thieno[2,3-b]pyridine-5-carbonitrile] gave a melting point of 198 to 200 °C. The compound further registered an IC50 in data set [1] of 125 nM.

On to `N#Cc1cnc2sc(/C=C/C(=O)O)cc2c1Nc1ccc2[nH]ccc2c1` [Compound 281, (2E)-3-[5-cyano-4-(1H-indol-5-ylamino)thieno[2,3-b]pyridin-2-yl]acrylic acid], for which the melting point is 230 °C (dec.). For the same compound, inhibition in data set [1] was half-maximal at 1960 nM (IC50).

On to `Cc1c(Nc2c(C#N)cnc3sc(C#Cc4ccc(N(C)C)nc4)cc23)ccc2[nH]ccc12` [Compound 445, 2-{[6-(dimethylamino)pyridin-3-yl]ethynyl}-4-[(4-methyl-1H-indol-5-yl)amino]thieno[2,3-b]pyridine-5-carbonitrile], for which the melting point was above 260 °C. The compound also had a concentration for half-maximal inhibition (IC50) in data set [1] of 550 nM.

With `N#Cc1cnc2sc(CCC(=O)O)cc2c1Nc1ccc2[nH]ccc2c1` [Compound 285, 3-[5-cyano-4-(1H-indol-5-ylamino)thieno[2,3-b]pyridin-2-yl]propanoic acid], the melting point is 255 °C. Besides, the IC50 in data set [1] is 5020 nM.

For the compound `Cc1c(Nc2c(C#N)cnc3sc(C(=O)N4CCCC4)cc23)ccc2[nH]ccc12` [Compound 249, 4-[(4-methyl-1H-indol-5-yl)amino]-2-(pyrrolidin-1-ylcarbonyl)thieno[2,3-b]pyridine-5-carbonitrile], the melting point came out at 256 °C. The compound further gave a 50% inhibitory concentration (IC50) in data set [1] of 48 nM.

`N#Cc1cnc2sc(C(=O)O)cc2c1Nc1ccc2[nH]ccc2c1` [Compound 248, 5-cyano-4-(1H-indol-5-ylamino)thieno[2,3-b]pyridine-2-carboxylic acid] displayed a melting point above 250 °C. The compound also gave an IC50 in data set [1] of 2050 nM.

Turning to `CN1CCN(CCC#Cc2cc3c(Nc4ccc5[nH]ccc5c4)c(C#N)cnc3s2)CC1` [Compound 221, 4-(1H-indol-5-ylamino)-2-[4-(4-methylpiperazin-1-yl)but-1-yn-1-yl]thieno[2,3-b]pyridine-5-carbonitrile], the melting point lay in the range of 195 to 197 °C. The compound further displayed an IC50 in data set [1] of 170 nM.

Turning to `Cc1c(Nc2c(C#N)cnc3sccc23)ccc2[nH]ccc12` [Compound 480, 4-[(4-methyl-1H-indol-5-yl)amino]thieno[2,3-b]pyridine-5-carbonitrile], the melting point is 255 °C. For the same compound, half-maximal inhibition in data set [1] (IC50) was put at 67 nM.

In turn, `Cc1c(Nc2c(C#N)cnc3sc(/C=C/C(=O)O)cc23)ccc2[nH]ccc12` [Compound 283, (2E)-3-{5-cyano-4-[(4-methyl-1H-indol-5-yl)amino]thieno[2,3-b]pyridin-2-yl}acrylic acid] gave a melting point above 350 °C. The IC50 in data set [1] was 21 nM.

Take `Cc1c(Nc2c(C#N)cnc3scc(C)c23)ccc2[nH]ccc12` [Compound 481, 3-Methyl-4-[(4-methyl-1H-indol-5-yl)amino]thieno[2,3-b]pyridine-5-carbonitrile]: the melting point is 261 °C. The half-maximal inhibitory concentration (IC50) in data set [1] is 46 nM.

As to `N#Cc1cnc2sc(-c3ccccc3)cc2c1Oc1ccc2[nH]ccc2c1` [Compound 130, 4-(1H-indol-5-yloxy)-2-phenylthieno[2,3-b]pyridine-5-carbonitrile], the melting point lay within 219 to 221 °C. Also, the IC50 in data set [1] came out at 9300 nM.

In the case of `N#Cc1cnc2sc(-c3ccccc3)cc2c1NCc1ccc2[nH]ccc2c1` [Compound 124, 4-(1H-indol-5-ylmethylamino)-2-phenylthieno[2,3-b]pyridine-5-carbonitrile], the melting point is 219 to 221 °C. Further, the IC50 in data set [1] amounted to 3700 nM.

Consider `Cc1c(Nc2c(C#N)cnc3sc(-c4ccc(OCCN(C)C)cc4)cc23)ccc2[nH]ccc12` [Compound 494, 2-{4-[2-(dimethylamino)ethoxy]phenyl}-4-[(4-methyl-1H-indol-5-yl)amino]thieno[2,3-b]pyridine-5-carbonitrile], for which the melting point was 182 to 184 °C. The IC50 in data set [1] was 23 nM.

For `CCCCc1cc2c(Nc3ccc4[nH]ccc4c3)c(C#N)cnc2s1` [Compound 271, 2-butyl-4-(1H-indol-5-ylamino)thieno[2,3-b]pyridine-5-carbonitrile], the melting point worked out at 210 °C. In data set [1], this compound showed an IC50 of 1160 nM.

The values above are taken from patent US20070082880A1 (priority 2005, published 2007).
